Laboratory results reported in ChEMBL document CHEMBL5257159, “Insights into targeting SARS-CoV-2: design, synthesis, in silico studies and antiviral evaluation of new dimethylxanthine derivatives” (RSC Med Chem, 2023).
Active and inactive are the calls of the source. The rule behind the calls is not given here.

Tests used:
[1] = test system: SARS-CoV-2; assay: Antiviral activity against SARS-CoV-2 NRC-03-nhCoV infected in african green monkey Vero E6 cells assessed as inhibition of virus-induced cytopathic effect measured after 72 hrs by crystal violet staining based assay; assay type: functional, organism-based; conditions: Severe acute respiratory syndrome coronavirus 2, NRC-03-nhCoV, Vero C1008, 72 h
[2] = Cytotoxicity against African green monkey Vero E6 cells measured after 72 hrs by MTT assay; assay type: toxicity, cell-based, Vero C1008; conditions: chlorocebus sabaeus
[3] = Selectivity index, ratio of CC50 for african green monkey Vero E6 cells to IC50 for antiviral activity against SARS-CoV-2 NRC-03-nhCoV infected in african green monkey Vero E6 cells; assay type: toxicity, Vero C1008; conditions: read-out: Ratio CC50/IC50
[4] = molecular target: T1, Replicase polyprotein 1ab (Severe acute respiratory syndrome coronavirus 2, UniProt P0DTD1); assay: Inhibition of MBP tagged recombinant SARS-CoV-2 main protease using DABCYL-KTSAVLeu(13C6,15N)-Q as substrate incubated for 2 to 3 hrs by mass spectrometric analysis
[5] = molecular target: T1, Replicase polyprotein 1ab; assay: Inhibition of SARS-CoV-2 RdRP using ATP substrate preincubated with compound for 30 mins followed by substrate addition and measured after 30 mins by Alphascreen microplate reader analysis
[6] = test system: UO-31; assay: Growth inhibition of human UO-31 cells incubated for 48 hrs by SRB assay relative to control; assay type: functional
[7] = test system: CCRF-CEM; assay: Cytotoxicity against human CCRF-CEM cells assessed as inhibition of cell growth incubated for 48 hrs by SRB assay; assay type: functional, cell-based
[8] = test system: HL-60(TB); assay: Cytotoxicity against human HL-60(TB) cells assessed as inhibition of cell growth incubated for 48 hrs by SRB assay; assay type: functional, cell-based
[9] = test system: K562; assay: Cytotoxicity against human K562 cells assessed as inhibition of cell growth incubated for 48 hrs by SRB assay; assay type: functional, cell-based
[10] = test system: MOLT-4; assay: Cytotoxicity against human MOLT-4 cells assessed as inhibition of cell growth incubated for 48 hrs by SRB assay; assay type: functional, cell-based
[11] = test system: RPMI-8226; assay: Cytotoxicity against human […] cells assessed as inhibition of cell growth incubated for 48 hrs by SRB assay; assay type: functional, cell-based
[12] = test system: SR; assay: Cytotoxicity against human SR cells assessed as inhibition of cell growth incubated for 48 hrs by SRB assay; assay type: functional, cell-based
[13] = test system: A549; assay: Cytotoxicity against human A549 cells assessed as inhibition of cell growth incubated for 48 hrs by SRB assay; assay type: functional, cell-based
[14] = test system: EKVX; assay: Cytotoxicity against human EKVX cells assessed as inhibition of cell growth incubated for 48 hrs by SRB assay; assay type: functional, cell-based
[15] = test system: HOP-92; assay: Cytotoxicity against human HOP-92 cells assessed as inhibition of cell growth incubated for 48 hrs by SRB assay; assay type: functional, cell-based
[16] = test system: NCI-H226; assay: Cytotoxicity against human NCI-H226 cells assessed as inhibition of cell growth incubated for 48 hrs by SRB assay; assay type: functional, cell-based
[17] = test system: NCI-H23; assay: Cytotoxicity against human NCI-H23 cells assessed as inhibition of cell growth incubated for 48 hrs by SRB assay; assay type: functional, cell-based
[18] = test system: NCI-H322M; assay: Cytotoxicity against human NCI-H322M cells assessed as inhibition of cell growth incubated for 48 hrs by SRB assay; assay type: functional, cell-based
[19] = test system: NCI-H460; assay: Cytotoxicity against human NCI-H460 cells assessed as inhibition of cell growth incubated for 48 hrs by SRB assay; assay type: functional, cell-based
[20] = test system: NCI-H522; assay: Cytotoxicity against human NCI-H522 cells assessed as inhibition of cell growth incubated for 48 hrs by SRB assay; assay type: functional, cell-based
[21] = test system: COLO 205; assay: Cytotoxicity against human COLO 205 cells assessed as inhibition of cell growth incubated for 48 hrs by SRB assay; assay type: functional, cell-based
[22] = test system: HCC 2998; assay: Cytotoxicity against human HCC 2998 cells assessed as inhibition of cell growth incubated for 48 hrs by SRB assay; assay type: functional, cell-based
[23] = test system: HCT-116; assay: Cytotoxicity against human HCT-116 cells assessed as inhibition of cell growth incubated for 48 hrs by SRB assay; assay type: functional, cell-based
[24] = test system: HCT-15; assay: Cytotoxicity against human HCT-15 cells assessed as inhibition of cell growth incubated for 48 hrs by SRB assay; assay type: functional, cell-based
[25] = test system: HT-29; assay: Cytotoxicity against human HT-29 cells assessed as inhibition of cell growth incubated for 48 hrs by SRB assay; assay type: functional, cell-based
[26] = test system: KM12; assay: Cytotoxicity against human KM12 cells assessed as inhibition of cell growth incubated for 48 hrs by SRB assay; assay type: functional, cell-based
[27] = test system: SW-620; assay: Cytotoxicity against human SW620 cells assessed as inhibition of cell growth incubated for 48 hrs by SRB assay; assay type: functional, cell-based
[28] = test system: SF-268; assay: Cytotoxicity against human SF-268 cells assessed as inhibition of cell growth incubated for 48 hrs by SRB assay; assay type: functional, cell-based
[29] = test system: SF-295; assay: Cytotoxicity against human SF-295 cells assessed as inhibition of cell growth incubated for 48 hrs by SRB assay; assay type: functional, cell-based
[30] = test system: SF-539; assay: Cytotoxicity against human SF-539 cells assessed as inhibition of cell growth incubated for 48 hrs by SRB assay; assay type: functional, cell-based
[31] = test system: SNB-19; assay: Cytotoxicity against human SNB-19 cells assessed as inhibition of cell growth incubated for 48 hrs by SRB assay; assay type: functional, cell-based
[32] = test system: SNB-75; assay: Cytotoxicity against human SNB-75 cells assessed as inhibition of cell growth incubated for 48 hrs by SRB assay; assay type: functional, cell-based
[33] = test system: U-251; assay: Cytotoxicity against human U-251 cells assessed as inhibition of cell growth incubated for 48 hrs by SRB assay; assay type: functional, cell-based
[34] = test system: LOX IMVI; assay: Cytotoxicity against human LOX IMVI cells assessed as inhibition of cell growth incubated for 48 hrs by SRB assay; assay type: functional, cell-based
[35] = test system: Malme-3M; assay: Cytotoxicity against human Malme-3M cells assessed as inhibition of cell growth incubated for 48 hrs by SRB assay; assay type: functional, cell-based
[36] = test system: M14; assay: Cytotoxicity against human M14 cells assessed as inhibition of cell growth incubated for 48 hrs by SRB assay; assay type: functional, cell-based
[37] = test system: MDA-MB-435; assay: Cytotoxicity against human MDA-MB-435 cells assessed as inhibition of cell growth incubated for 48 hrs by SRB assay; assay type: functional, cell-based
[38] = test system: SK-MEL-2; assay: Cytotoxicity against human SK-MEL-2 cells assessed as inhibition of cell growth incubated for 48 hrs by SRB assay; assay type: functional, cell-based
[39] = test system: SK-MEL-28; assay: Cytotoxicity against human SK-MEL-28 cells assessed as inhibition of cell growth incubated for 48 hrs by SRB assay; assay type: functional, cell-based
[40] = test system: SK-MEL-5; assay: Cytotoxicity against human SK-MEL-5 cells assessed as inhibition of cell growth incubated for 48 hrs by SRB assay; assay type: functional, cell-based
[41] = test system: UACC-257; assay: Cytotoxicity against human UACC-257 cells assessed as inhibition of cell growth incubated for 48 hrs by SRB assay; assay type: functional, cell-based
[42] = test system: IGROV-1; assay: Cytotoxicity against human IGROV-1 cells assessed as inhibition of cell growth incubated for 48 hrs by SRB assay; assay type: functional, cell-based
[43] = test system: OVCAR-3; assay: Cytotoxicity against human OVCAR-3 cells assessed as inhibition of cell growth incubated for 48 hrs by SRB assay; assay type: functional, cell-based
[44] = test system: OVCAR-4; assay: Cytotoxicity against human OVCAR-4 cells assessed as inhibition of cell growth incubated for 48 hrs by SRB assay; assay type: functional, cell-based
[45] = test system: OVCAR-5; assay: Cytotoxicity against human OVCAR-5 cells assessed as inhibition of cell growth incubated for 48 hrs by SRB assay; assay type: functional, cell-based
[46] = test system: OVCAR-8; assay: Cytotoxicity against human OVCAR-8 cells assessed as inhibition of cell growth incubated for 48 hrs by SRB assay; assay type: functional, cell-based
[47] = test system: NCI/ADR-RES; assay: Cytotoxicity against human NCI/ADR-RES cells assessed as inhibition of cell growth incubated for 48 hrs by SRB assay; assay type: functional, cell-based
[48] = test system: SK-OV-3; assay: Cytotoxicity against human SK-OV-3 cells assessed as inhibition of cell growth incubated for 48 hrs by SRB assay; assay type: functional, cell-based
[49] = test system: 786-0; assay: Cytotoxicity against human 786-0 cells assessed as inhibition of cell growth incubated for 48 hrs by SRB assay; assay type: functional, cell-based
[50] = test system: A498; assay: Cytotoxicity against human A498 cells assessed as inhibition of cell growth incubated for 48 hrs by SRB assay; assay type: functional, cell-based
[51] = test system: ACHN; assay: Cytotoxicity against human ACHN cells assessed as inhibition of cell growth incubated for 48 hrs by SRB assay; assay type: functional, cell-based
[52] = test system: CAKI-1; assay: Cytotoxicity against human CAKI-1 cells assessed as inhibition of cell growth incubated for 48 hrs by SRB assay; assay type: functional, cell-based
[53] = test system: RXF 393; assay: Cytotoxicity against human RXF 393 cells assessed as inhibition of cell growth incubated for 48 hrs by SRB assay; assay type: functional, cell-based
[54] = test system: SN12C; assay: Cytotoxicity against human SN12C cells assessed as inhibition of cell growth incubated for 48 hrs by SRB assay; assay type: functional, cell-based
[55] = test system: TK-10; assay: Cytotoxicity against human TK-10 cells assessed as inhibition of cell growth incubated for 48 hrs by SRB assay; assay type: functional, cell-based
[56] = test system: PC-3; assay: Cytotoxicity against human PC-3 cells assessed as inhibition of cell growth incubated for 48 hrs by SRB assay; assay type: functional, cell-based
[57] = test system: DU-145; assay: Cytotoxicity against human DU-145 cells assessed as inhibition of cell growth incubated for 48 hrs by SRB assay; assay type: functional, cell-based
[58] = test system: MCF7; assay: Cytotoxicity against human MCF7 cells assessed as inhibition of cell growth incubated for 48 hrs by SRB assay; assay type: functional, cell-based
[59] = test system: MDA-MB-231; assay: Cytotoxicity against human MDA-MB-231 cells assessed as inhibition of cell growth incubated for 48 hrs by SRB assay; assay type: functional, cell-based
[60] = test system: Hs578Bst; assay: Cytotoxicity against human Hs578Bst cells assessed as inhibition of cell growth incubated for 48 hrs by SRB assay; assay type: functional, cell-based
[61] = test system: BT-549; assay: Cytotoxicity against human BT-549 cells assessed as inhibition of cell growth incubated for 48 hrs by SRB assay; assay type: functional, cell-based
[62] = test system: T47D; assay: Cytotoxicity against human T47D cells assessed as inhibition of cell growth incubated for 48 hrs by SRB assay; assay type: functional, cell-based
[63] = test system: MDA-MB-468; assay: Cytotoxicity against human MDA-MB-468 cells assessed as inhibition of cell growth incubated for 48 hrs by SRB assay; assay type: functional, cell-based
[64] = test system: HOP-62; assay: Cytotoxicity against human HOP-62 cells assessed as inhibition of cell growth incubated for 48 hrs by SRB assay; assay type: functional, cell-based
[65] = molecular target: T1, Replicase polyprotein 1ab; assay: Inhibition of recombinant SARS-CoV-2 main protease expressed in Escherichia coli BL21 using Dabcyl-EDANS and Boc-Abu-Tle-Leu-Gln-AMC as substrate

## Cn1cnc2c1c(=O)n(CC(=O)Nc1ccc(S(=O)(=O)Nc3ncccn3)cc1)c(=O)n2C
[1]
  IC50: 8.86 µM
[2]
  CC50 at 72 h: 1140 µM
[3]
  selectivity ratio: 129
[4]
  IC50: 8.06 µM
[5]
  IC50: 3.22 µM
[6]
  growth inhibition (GI): 17.55%
[7]
  Activity: inactive
[8]
  Activity: inactive
[9]
  Activity: inactive
[10]
  Activity: inactive
[11]
  Activity: inactive
[12]
  Activity: inactive
[13]
  Activity: inactive
[14]
  Activity: inactive
[15]
  Activity: inactive
[16]
  Activity: inactive
[17]
  Activity: inactive
[18]
  Activity: inactive
[19]
  Activity: inactive
[20]
  Activity: inactive
[21]
  Activity: inactive
[22]
  Activity: inactive
[23]
  Activity: inactive
[24]
  Activity: inactive
[25]
  Activity: inactive
[26]
  Activity: inactive
[27]
  Activity: inactive
[28]
  Activity: inactive
[29]
  Activity: inactive
[30]
  Activity: inactive
[31]
  Activity: inactive
[32]
  Activity: inactive
[33]
  Activity: inactive
[34]
  Activity: inactive
[35]
  Activity: inactive
[36]
  Activity: inactive
[37]
  Activity: inactive
[38]
  Activity: inactive
[39]
  Activity: inactive
[40]
  Activity: inactive
[41]
  Activity: inactive
[42]
  Activity: inactive
[43]
  Activity: inactive
[44]
  Activity: inactive
[45]
  Activity: inactive
[46]
  Activity: inactive
[47]
  Activity: inactive
[48]
  Activity: inactive
[49]
  Activity: inactive
[50]
  Activity: inactive
[51]
  Activity: inactive
[52]
  Activity: inactive
[53]
  Activity: inactive
[54]
  Activity: inactive
[55]
  Activity: inactive
[56]
  Activity: inactive
[57]
  Activity: inactive
[58]
  Activity: inactive
[59]
  Activity: inactive
[60]
  Activity: inactive
[61]
  Activity: inactive
[62]
  Activity: inactive
[63]
  Activity: inactive
[64]
  Activity: inactive

## Cn1c(=O)c2c(nc3n(CC#Cc4ccc(Cl)c(Cl)c4)ccn23)n(C)c1=O
[65]
  IC50: 4.7 µM
